The target in assay [1] is PD-L1 His protein / PD-1 Fc protein (Homo sapiens (Human), UniProt Q9NZQ7). As to the kind of experiment: HTRF Assay (PD-1/PD-L1 interaction). The class given is binding. The conditions noted are these: PD-L1 His 6 nM, PD-1 Fc 6 nM. In general terms: In TR-FRET formats the signal depends on donor and acceptor labels being close together.
The next assay deals with human PD-L1 (Homo sapiens (Human), UniProt Q9NZQ7). As to the kind of experiment: T cell activation luciferase reporter cell culture system (T Cell Activation Assay). The class given is cell-based. The conditions noted are these: luciferase reporter assay; PD-L1 aAPC/CHO-K1 cells with PD-1 effector Jurkat T cells. Background: In a reporter assay the amount or activity of a reporter protein is the signal.

Some results are limits rather than exact numbers.

As a reminder, the IC50 is the concentration that inhibits the measured activity by half. High values mean weaker potency in that assay, low ones greater potency in that assay. What is called EC50 is the concentration at which the effect is half-maximal. High values mean weaker potency, low ones greater potency.

Chain of PD-L1 His protein / PD-1 Fc protein (Q9NZQ7 19-238): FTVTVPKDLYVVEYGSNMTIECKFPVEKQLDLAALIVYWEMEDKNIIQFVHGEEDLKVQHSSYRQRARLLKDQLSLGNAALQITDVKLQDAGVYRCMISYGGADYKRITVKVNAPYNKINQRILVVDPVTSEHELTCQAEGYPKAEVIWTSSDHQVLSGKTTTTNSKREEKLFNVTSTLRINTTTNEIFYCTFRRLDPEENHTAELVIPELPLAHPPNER
Chain of human PD-L1 (Q9NZQ7 19-290): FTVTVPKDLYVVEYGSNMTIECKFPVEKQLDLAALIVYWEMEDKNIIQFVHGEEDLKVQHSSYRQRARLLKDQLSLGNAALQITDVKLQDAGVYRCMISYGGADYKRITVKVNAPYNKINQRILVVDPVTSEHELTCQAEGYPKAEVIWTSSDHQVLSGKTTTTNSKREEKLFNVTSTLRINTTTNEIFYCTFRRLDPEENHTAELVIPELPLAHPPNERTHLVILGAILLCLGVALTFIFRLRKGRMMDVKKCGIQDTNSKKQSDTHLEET

For `COc1cc(-c2cncc(-c3cccc(-c4ccc(CN5CC6(CNC(=O)C6)C5)c(OC)n4)c3Cl)c2Cl)ccc1CN1CC2(CNC(=O)C2)C1` [Compound 642, 2-(4-(4-Chloro-5-(2-chloro-3-(6-methoxy-5-((7-oxo-2,6-diazaspiro[3.4]octan-2-yl)methyl)pyridin-2-yl)phenyl)pyridin-3-yl)-2-methoxybenzyl)-2,6-diazaspiro[3.4]octan-7-one], in assay [1], the IC50 was found to be 0.19 nM. The EC50 at human PD-L1 was found to be 181 nM.

Regarding `COc1nc(-c2cccc(-c3nccc(-c4ccc(CN5CC6(CNC(=O)C6)C5)c(OC)n4)c3Cl)c2Cl)ccc1CNC1CCN(C(C)=O)CC1` [Compound 680, 2-((2′-(3-(5-(((1-Acetylpiperidin-4-yl)amino)methyl)-6-methoxypyridin-2-yl)-2-chlorophenyl)-3′-chloro-6-methoxy-[2,4′-bipyridin]-5-yl)methyl)-2,6-diazaspiro[3.4]octan-7-one], the IC50 in assay [1] is 0.03 nM. The compound also showed an EC50 on human PD-L1 of 26.3 nM.

In turn, `COc1nc(-c2cccc(-c3nccc(-c4ccc(CN5CC6(CNC(=O)C6)C5)c(OC)n4)c3Cl)c2Cl)ccc1CN1CCC(O)CC1` [Compound 681, 2-((3′-Chloro-2′-(2-chloro-3-(5-((4-hydroxypiperidin-1-yl)methyl)-6-methoxypyridin-2-yl)phenyl)-6-methoxy-[2,4′-bipyridin]-5-yl)methyl)-2,6-diazaspiro[3.4]octan-7-one] displayed a concentration for half-maximal inhibition (IC50) in assay [1] of 1.07 nM. The compound also gave a 50% effective concentration (EC50) at human PD-L1 of 23.4 nM.

Turning to `COc1nc(-c2cccc(-c3nccc(-c4ccc(CNC5CCN(C(C)=O)CC5)c(OC)n4)c3Cl)c2Cl)ccc1CN1CC2(CNC(=O)C2)C1` [Compound 682, 2-((6-(3-(5-(((1-Acetylpiperidin-4-yl)amino)methyl)-3′-chloro-6-methoxy-[2,4′-bipyridin]-2′-yl)-2-chlorophenyl)-2-methoxypyridin-3-yl)methyl)-2,6-diazaspiro[3.4]octan-7-one], the half-maximal inhibitory concentration (IC50) in assay [1] was 0.17 nM. For the same compound, it took 24.6 nM to reach a half-maximal effect on human PD-L1 (EC50).

In turn, `COc1cc(-c2ncnc(-c3cccc(NC(=O)c4cn(C)c(=O)n(C)c4=O)c3Cl)c2Cl)ccc1CNC[C@@H]1CCC(=O)N1` [Compound 708, (S)—N-(2-Chloro-3-(5-chloro-6-(3-methoxy-4-((((5-oxopyrrolidin-2-yl)methyl)amino)methyl)phenyl)pyrimidin-4-yl)phenyl)-1,3-dimethyl-2,4-dioxo-1,2,3,4-tetrahydropyrimidine-5-carboxamide] had an IC50 in assay [1] of 0.29 nM. The compound also returned a concentration for a half-maximal effect (EC50) at human PD-L1 of 1320 nM.

`COc1nc(-c2ccnc(-c3cccc(NC(=O)c4cn(C)c(=O)n(C)c4=O)c3Cl)c2Cl)ccc1CNC1CCN(C(C)=O)CC1` [Compound 721, N-(3-(5-(((1-Acetylpiperidin-4-yl)amino)methyl)-3′-chloro-6-methoxy-[2,4′-bipyridin]-2′-yl)-2-chlorophenyl)-1,3-dimethyl-2,4-dioxo-1,2,3,4-tetrahydropyrimidine-5-carboxamide] returned a half-maximal inhibitory concentration (IC50) in assay [1] of 0.7 nM. At human PD-L1, this compound showed a half-maximal effective concentration (EC50) of 1320 nM.

In assay [1], `COc1nc(-c2ccnc(-c3cccc(NC(=O)c4cn(C)c(=O)n(C)c4=O)c3Cl)c2Cl)ccc1CN1CC2(C1)CN(C(C)=O)C2` [Compound 731, N-(3-(5-((6-Acetyl-2,6-diazaspiro[3.3]heptan-2-yl)methyl)-3′-chloro-6-methoxy-[2,4′-bipyridin]-2′-yl)-2-chlorophenyl)-1,3-dimethyl-2,4-dioxo-1,2,3,4-tetrahydropyrimidine-5-carboxamide] registered an IC50 of 0.9 nM. At human PD-L1, this compound yielded a 50% effective concentration (EC50) of 1170 nM.

Consider `COc1nc(-c2ccnc(-c3cccc(NC(=O)c4cn(C)c(=O)n(C)c4=O)c3Cl)c2Cl)ccc1CNC[C@H](C)O` [Compound 745, (S)—N-(2-Chloro-3-(3′-chloro-5-(((2-hydroxypropyl)amino)methyl)-6-methoxy-[2,4′-bipyridin]-2′-yl)phenyl)-1,3-dimethyl-2,4-dioxo-1,2,3,4-tetrahydropyrimidine-5-carboxamide], for which, in assay [1], the IC50 is 0.31 nM. The same compound returned a 50% effective concentration (EC50) at human PD-L1 of 372 nM.

In turn, `COc1cc(-c2ncnc(-c3cccc(NC(=O)c4cn(C)c(=O)n(C)c4=O)c3Cl)c2Cl)ccc1CNC[C@H](C)O` [Compound 746, (S)—N-(2-Chloro-3-(5-chloro-6-(4-(((2-hydroxypropyl)amino)methyl)-3-methoxyphenyl)pyrimidin-4-yl)phenyl)-1,3-dimethyl-2,4-dioxo-1,2,3,4-tetrahydropyrimidine-5-carboxamide] showed an IC50 in assay [1] of 1.29 nM. On human PD-L1, this compound yielded a half-maximal effective concentration (EC50) of 2080 nM.

Take `COc1nc(-c2cccc(-c3ccnc(-c4cc(OC)c5nc(CN6CC7(CC(O)C7)C6)nn5c4)c3Cl)c2Cl)ccc1CNC(C)C` [Compound 753, 2-((6-(3-Chloro-4-(2-chloro-3-(5-((isopropylamino)methyl)-6-methoxypyridin-2-yl)phenyl)pyridin-2-yl)-8-methoxy-[1,2,4]triazolo[1,5-a]pyridin-2-yl)methyl)-2-azaspiro[3.3]heptan-6-ol]: in assay [1], 0.2 nM corresponded to half-maximal inhibition (IC50). Further, the half-maximal effective concentration (EC50) on human PD-L1 stood at 87 nM.

In the case of `COc1nc(-c2cccc(-c3ccnc(-c4cc(OC)c5nc(CN[C@H]6CC[C@H](O)CC6)nn5c4)c3Cl)c2Cl)ccc1CNC(C)C` [Compound 758, (1r,4r)-4-(((6-(3-Chloro-4-(2-chloro-3-(5-((isopropylamino)methyl)-6-methoxypyridin-2-yl)phenyl)pyridin-2-yl)-8-methoxy-[1,2,4]triazolo[1,5-a]pyridin-2-yl)methyl)amino)cyclohexanol], the half-maximal inhibitory concentration (IC50) in assay [1] worked out at 0.24 nM. The same compound showed a concentration for a half-maximal effect (EC50) on human PD-L1 of 354 nM.

Turning to `COc1nc(-c2cccc(-c3ccnc(-c4cc(OC)c5nc(CNC(C)C)nn5c4)c3Cl)c2Cl)ccc1CNC(C)C` [Compound 763, N-((6-(2-chloro-3-(3-chloro-2-(2-((isopropylamino)methyl)-8-methoxy-[1,2,4]triazolo[1,5-a]pyridin-6-yl)pyridin-4-yl)phenyl)-2-methoxypyridin-3-yl)methyl)propan-2-amine], the IC50 in assay [1] is 0.25 nM. Further, the EC50 on human PD-L1 was 650 nM.

In the case of `COc1nc(-c2cccc(-c3ccnc(-c4cc(OC)c5nc(CNC[C@@H]6CCC(=O)N6)nn5c4)c3Cl)c2Cl)ccc1CNC(C)C` [Compound 764, (S)-5-((((6-(3-chloro-4-(2-chloro-3-(5-((isopropylamino)methyl)-6-methoxypyridin-2-yl)phenyl)pyridin-2-yl)-8-methoxy-[1,2,4]triazolo[1,5-a]pyridin-2-yl)methyl)amino)methyl)pyrrolidin-2-one], the IC50 in assay [1] is 0.56 nM. On human PD-L1, this compound returned a concentration giving a half-maximal response (EC50) of 865 nM.

`COc1nc(-c2cccc(-c3ccnc(-c4cc(OC)c5nc(CNC6CCN(C(C)=O)CC6)nn5c4)c3Cl)c2Cl)ccc1CNC(C)C` [Compound 765, 1-(4-(((6-(3-Chloro-4-(2-chloro-3-(5-((isopropylamino)methyl)-6-methoxypyridin-2-yl)phenyl)pyridin-2-yl)-8-methoxy-[1,2,4]triazolo[1,5-a]pyridin-2-yl)methyl)amino)piperidin-1-yl)ethan-1-one]: 0.28 nM corresponded to half-maximal inhibition in assay [1] (IC50). The EC50 at human PD-L1 came to 1280 nM.

Turning to `COc1nc(-c2cccc(-c3ccnc(-c4cc(OC)c5nc(CN6CC7(C6)CN(C(C)=O)C7)nn5c4)c3Cl)c2Cl)ccc1CNC(C)C` [Compound 767, 1-(6-((6-(3-Chloro-4-(2-chloro-3-(5-((isopropylamino)methyl)-6-methoxypyridin-2-yl)phenyl)pyridin-2-yl)-8-methoxy-[1,2,4]triazolo[1,5-a]pyridin-2-yl)methyl)-2,6-diazaspiro[3.3]heptan-2-yl)ethan-1-one], the midpoint of inhibition in assay [1], the IC50, lay at 0.24 nM. The compound also showed a concentration for a half-maximal effect (EC50) on human PD-L1 of 92.1 nM.

With `COc1nc(-c2cccc(-c3ccnc(-c4cc5c(=O)n(C)c(CN6CC(C)(O)C6)nn5c4)c3Cl)c2Cl)ccc1CN1CC(C)(O)C1` [Example 231, 6-(3-Chloro-4-(2-chloro-3-(5-((3-hydroxy-3-methylazetidin-1-yl)methyl)-6-methoxypyridin-2-yl)phenyl)pyridin-2-yl)-2-((3-hydroxy-3-methylazetidin-1-yl)methyl)-3-methylpyrrolo[2,1-f][1,2,4]triazin-4(3H)-one], the IC50 in assay [1] came out at 3.53 nM. Besides, at human PD-L1, the EC50 is 105 nM.

In assay [1], `COc1cc(-c2nccc(-c3cccc(-c4ccc(CNC5CCN(C(C)=O)CC5)c(OC)n4)c3Cl)c2Cl)ccc1CN1CC[C@H](C(=O)O)C1` [Example 239, (S)-1-(4-(4-(3-(5-(((1-acetylpiperidin-4-yl)amino)methyl)-6-methoxypyridin-2-yl)-2-chlorophenyl)-3-chloropyridin-2-yl)-2-methoxybenzyl)pyrrolidine-3-carboxylic acid] gave an IC50 of 0.19 nM. At human PD-L1, this compound gave an EC50 of 161 nM.

Regarding `COc1cc(-c2nccc(-c3cccc(-c4ccc5c(OC)c(CNC6CCN(C(C)=O)CC6)cc(Cl)c5n4)c3Cl)c2Cl)ccc1CNC[C@@H]1CCC(=O)N1` [Example 241, (S)-5-(((4-(4-(3-(6-(((1-Acetylpiperidin-4-yl)amino)methyl)-8-chloro-5-methoxyquinolin-2-yl)-2-chlorophenyl)-3-chloropyridin-2-yl)-2-methoxybenzyl)amino)methyl)pyrrolidin-2-one], the midpoint of inhibition in assay [1], the IC50, lay at 14.3 nM. At human PD-L1, the EC50 is not below 10000 nM.

With `COc1nc(-c2cccc(-c3ccnc(-c4ccc5c(CN(C)CCO)nn(C)c5c4)c3Cl)c2Cl)ccc1CNC[C@@H]1CCC(=O)N1` [Example 247, (S)-5-((((6-(2-Chloro-3-(3-chloro-2-(3-(((2-hydroxyethyl)(methyl)amino)methyl)-1-methyl-1H-indazol-6-yl)pyridin-4-yl)phenyl)-2-methoxypyridin-3-yl)methyl)amino)methyl)pyrrolidin-2-one], the IC50 in assay [1] was 6.74 nM. Further, the response on human PD-L1 was half-maximal at 52.4 nM (EC50).

The compound `COc1nc(-c2ccnc(-c3cccc4c3CC[C@@H]4Oc3nc(OC)c(CNC4CCN(C(C)=O)CC4)cc3C(F)(F)F)c2Cl)ccc1CNC1CCN(C(C)=O)CC1` [Example 254, (S)-1-(4-(((6-((4-(5-(((1-Acetylpiperidin-4-yl)amino)methyl)-3′-chloro-6-methoxy-[2,4′-bipyridin]-2′-yl)-2,3-dihydro-1H-inden-1-yl)oxy)-2-methoxy-5-(trifluoromethyl)pyridin-3-yl)methyl)amino)piperidin-1-yl)ethan-1-one] gave an IC50 in assay [1] of 94.3 nM. The response at human PD-L1 was half-maximal at 148 nM (EC50).

Source of the values: patent publication US20240246964A1 (Arbutus Biopharma Corporation, priority 2021, published 2024).
